Measurements taken from publication PMC11249626, “Fluorophore-Labeled Pyrrolones Targeting the Intracellular Allosteric Binding Site of the Chemokine Receptor CCR1” (ACS Pharmacology & Translational Science, 2024).
Read-outs that look alike come from different tables or passages of the source.

Molecular target: T1, human chemokine receptor CCR1 (Homo sapiens, UniProt P32246)
T1 construct: expressed in transfected cells; host or cells: HEK293T, transient
T1 sequence (P32246 1-355): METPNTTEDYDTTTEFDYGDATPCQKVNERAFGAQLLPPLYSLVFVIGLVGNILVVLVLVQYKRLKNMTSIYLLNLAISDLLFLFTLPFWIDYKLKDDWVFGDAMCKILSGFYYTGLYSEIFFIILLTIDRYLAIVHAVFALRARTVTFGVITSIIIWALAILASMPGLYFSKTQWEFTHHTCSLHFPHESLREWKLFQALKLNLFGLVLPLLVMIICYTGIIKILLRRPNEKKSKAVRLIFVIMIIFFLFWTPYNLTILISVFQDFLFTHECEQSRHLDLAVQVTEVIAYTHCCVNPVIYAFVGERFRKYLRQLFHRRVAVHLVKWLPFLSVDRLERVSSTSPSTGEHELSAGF
Assay: Cellular NanoBiT miniGi recruitment assay
Type: cell-based
Conditions: in the presence of CCL5 (3 nM)
Description: Technologies) for 20 min.
Cellular NanoBiT miniGi recruitment assay s: Chemokine-induced Gi recruitment to the chemokine receptor CCR1 was monitored using a nanoluciferase complementation -based assay (NanoBiT, Promega). 20 5 x 10^6 HEK293T cells were plated in 10 cm dishes and cultured for 24 h before transfection with vectors encoding for the human chemokine receptor CCR1 C-terminally fused with SmBiT and miniGi (mG, engineered GTPase domain of Gα subunit) N-terminally fused with LgBiT. 24 h after transfection cells were harvested, distributed into white 96 -well plates (5 × 10^4 cells per well) and incubated for 1 h at 37 °C with compound 23 at concentrations ranging from 10 nM to 100 µM. The endogenous chemokine ligand CCL5 (3 nM, for CCR1) was then added, and luminescence generated upon nanoluciferase complementation in the presence of coelenterazine H was measured with a Mithras LB940 luminometer (Berthold Technologies) for 20 min. […]
Finally, the top 5% of the identified hits were subsequently docked to a homology model of CCR1 (vide infra). After visual examination of the obtained binding modes 24 hit compounds were identified for further investigation .
Molecular docking: For the docking studies in the course of our virtual screening campaign, the CCR1 protein was […]
27, 28 CCR1 structure was optimized using the Quickprep and structure preparation wizard in MOE 24 using CHARMM27 forcefield. The protein was saved in mol2 format and loaded in GOLD.25, 26 The amino acids defining the IABS were listed in a text file to define the docking cavity. 50 GA runs were performed for docking CCR2-RA-[R] (4-[R]) and SN_12 (43), with the generated solutions clustered based on their RMSD with the threshold set to 0.75 Å using the complete linkage method. Docking runs were performed using ChemScore. […]

O=C(C1=C(O)C(=O)N(CCc2ccc(O)cc2)C1c1ccc(F)cc1)c1ccccc1 (racemic) [compound 23]
IC50 (read-out: IC50, miniGi recruitment): 68.9 µM | IC50 (read-out: pIC50, miniGi recruitment (converted)): 67.6 µM
